Laboratory results as given in patent publication US9255132B2, “Angiopoietin derived peptides” (Compugen Ltd., priority 2008, dated 2016).
Residues, ends and D or L forms follow the SMILES beside them.

Legend:
[1] = system: oxygen-induced retinopathy (OIR); experiment: Rodent model of oxygen-induced retinopathy (OIR); assay type: in vivo, Sprague Dawley rats; conditions: for inhibition of pre-retinal neovascular growth (pathological angiogenesis): relative to PBS-injected eyes, P20
Source text: In order to assess the in viva efficacy of CGEN-A 11 [SEQ ID NO: 10] in a disease model of angiogenesis, a rodent model of oxygen-induced retinopathy (OIR) was used. Sprague Dawley rats were raised from birth through day PI4 in a variable oxygen atmosphere consisting of 24-hour alternating cycles of 50% and 10% oxygen. Rats were predisposed to pathological retinal angiogenesis as a result of oxygen treatment. Upon removal from the oxygen exposure chamber on day P14, rats received intravitreal injections of CGEN-A11 [SEQ ID NO: 10] in one of two doses: 15 μg/ml (low) or 75 μg/ml (high), 100 μg/ml recombinant rat Tie-2/Fc (R&D Systems, 3874-T2) or 100 μg/ml anti-VEGFR2 (Sigma, V1014) as positive controls, a combination of CGEN-A11 [SEQ ID NO: 10] at 30 μg/ml and anti-VEGFR2 (100 μg/ml), or vehicle (PBS) at a volume of 5 μl. An additional similar intravitreal administration took place 3 days later, on day P17. All pups were sacrificed on day P20. Both normal, intra-retinal vascular growth and abnormal, pre-retinal neovascular growth were assessed at six days post-exposure (P20) in ADPase-stained retinal flat-mounts, using widely published methods (e.g. Penn J S et al., 1991, Invest Ophthalmol Vis Sci. 32(4):1147; MicLeod D S et al., 1987, Microvasc Res. 33:257-269). All assessments were performed by a single, highly trained observer, who was blinded to treatment group. Areas of normal and abnormal vascular growth were measured via computer-assisted image analysis using high-resolution digital images of the stained retinal flat-mounts. The data were subjected to analysis of variance to determine statistical significance and a Dunnett's post hoc test to identify how the various treatment groups compared.
Data are depicted using percent total retinal area vascularized. Sample sizes (10, 11 or 12) are indicated on each bar. […] These differences yielded statistical significance, both at p<0.0001. Statistical significance was calculated using area (mm^2) measurements.
Data are depicted as area vascularized (mm^2). Sample sizes (10, 11 or 12) are indicated on each bar.

[2] = target: T1, recombinant human Tie-2/Fc chimera (Homo sapiens, UniProt Q02763); experiment: BIACORE (SPR) direct binding of peptides to immobilized Tie2; conditions: 10-50 μM peptide
T1 construct: purchased R&D Systems 313-TI
T1 sequence (Q02763 with tags, fused parts or gaps limits assumed): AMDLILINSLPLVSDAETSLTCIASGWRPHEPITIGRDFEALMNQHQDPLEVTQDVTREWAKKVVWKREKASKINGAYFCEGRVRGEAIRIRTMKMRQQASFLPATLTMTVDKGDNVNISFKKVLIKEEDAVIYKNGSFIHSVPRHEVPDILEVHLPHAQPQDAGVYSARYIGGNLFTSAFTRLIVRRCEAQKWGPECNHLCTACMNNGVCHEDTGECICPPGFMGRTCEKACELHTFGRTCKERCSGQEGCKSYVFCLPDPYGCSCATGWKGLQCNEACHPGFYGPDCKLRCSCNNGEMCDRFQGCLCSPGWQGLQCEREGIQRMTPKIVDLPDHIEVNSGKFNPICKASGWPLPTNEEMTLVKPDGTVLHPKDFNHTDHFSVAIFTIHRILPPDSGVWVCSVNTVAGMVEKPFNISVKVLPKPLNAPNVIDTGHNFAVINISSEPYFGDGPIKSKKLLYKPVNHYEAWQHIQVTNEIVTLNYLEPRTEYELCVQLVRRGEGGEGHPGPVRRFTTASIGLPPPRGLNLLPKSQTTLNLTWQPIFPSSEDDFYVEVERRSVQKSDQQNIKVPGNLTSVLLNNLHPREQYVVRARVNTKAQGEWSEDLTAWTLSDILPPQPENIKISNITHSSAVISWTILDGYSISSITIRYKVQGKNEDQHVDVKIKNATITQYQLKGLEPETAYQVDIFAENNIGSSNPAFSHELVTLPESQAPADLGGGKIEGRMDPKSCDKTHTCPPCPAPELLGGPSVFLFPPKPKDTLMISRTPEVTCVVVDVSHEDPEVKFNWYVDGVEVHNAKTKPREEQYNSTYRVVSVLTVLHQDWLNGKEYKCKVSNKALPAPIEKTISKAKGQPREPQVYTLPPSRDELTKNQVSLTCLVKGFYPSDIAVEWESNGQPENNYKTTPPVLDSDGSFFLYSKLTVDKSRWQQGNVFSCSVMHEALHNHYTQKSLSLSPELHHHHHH
Source text: The capability of CGEN-G6 [SEQ ID NO: 6], CGEN-F9 [SEQ ID NO: 7], CGEN-C6 [SEQ ID NO: 9], CGEN-A11 [SEQ ID NO: 10], and CGEN-G2 [SEQ ID NO: 11] to specifically bind to recombinant Tie2 and interfere with the binding of Ang1, Ang2, or Ang4 to Tie2 was investigated using the BIACORE technology, measuring protein-protein interaction and binding affinity (Wendler et al 2005, Anal Bioanal Chem, 381: 1056-1064). The technology is based on surface plasmon resonance (SPR), an optical phenomenon that enables detection of unlabeled interactants in real time. […]
Peptide-protein interaction was analyzed using surface plasmon resonance. […] Solutions containing 10-50 μM of CGEN-G6 [SEQ ID NO: 6], CGEN-F9 [SEQ ID NO: 7], CGEN-C6 [SEQ ID NO: 9], CGEN-A11 [SEQ ID NO: 10], and CGEN-G2 [SEQ ID NO: 11] were injected into the sample chamber of the BIACORE device at a rate of 20 μl/min and the interaction was monitored using surface plasmon resonance. In addition, solutions containing 100-500 nM of Ang1, Ang2, and Ang4 proteins were injected alone or in combination with 10-50 μM of CGEN-G6 [SEQ ID NO: 6], CGEN-F9 [SEQ ID NO: 7], CGEN-C6 [SEQ ID NO: 9], CGEN-A11 [SEQ ID NO: 10], and CGEN-G2 [SEQ ID NO: 11] peptides at a constant ratio of 1:100 (Ang ligand to peptide) into the sample chamber of the BIACORE device at a rate of 20 μl/min and the interaction was monitored using surface plasmon resonance. […]

Row | binding of peptide alone to immobilized Tie2 [2] | Compound | inhibition of pre-retinal neovascular growth (pathological angiogenesis) ([1]; intravitreal 15 μg/ml) [%] | intra-retinal normal vascular growth compared to PBS control ([1]; intravitreal 75 μg/ml, 5 μl, P14 and P17, assessed P20, p<0.0001) | inhibition of pre-retinal neovascular growth (pathological angiogenesis) ([1]; intravitreal 75 μg/ml, p=0.0126) [%]
1 | – | CC(=O)N[C@@H](CCC(=O)O)C(=O)N[C@H](C(=O)N[C@@H](Cc1ccccc1)C(=O)N[C@@H](CC(C)C)C(=O)N[C@@H](CO)C(=O)N[C@H](C(=O)N[C@@H](CC(N)=O)C(=O)N[C@@H](CCCCN)C(=O)N[C@@H](CC(C)C)C(=O)N[C@@H](CCC(=O)O)C(=O)N[C@@H](CC(N)=O)C(=O)N[C@@H](CCC(N)=O)C(N)=O)[C@@H](C)O)[C@@H](C)O [CGEN-A11, ETFLSTNKLENQ] (Ac-ETFLSTNKLENQ-NH2) | 38.9 | statistically significant increase | 76.4
2 | some non specific binding | CC[C@H](C)[C@H](NC(=O)[C@H](C)NC(=O)[C@H](CCCNC(=N)N)NC(=O)[C@H](CCC(=O)O)NC(=O)[C@H](CC(C)C)NC(=O)[C@H](CCCCN)NC(=O)[C@H](CCCCN)NC(=O)[C@H](CC(C)C)NC(=O)[C@H](Cc1c[nH]c2ccccc12)NC(=O)[C@H](CCC(N)=O)NC(=O)[C@@H](NC(=O)[C@H](CC(N)=O)NC(=O)[C@H](CC(N)=O)NC(=O)[C@H](CCC(N)=O)NC(=O)[C@H](CC(C)C)NC(=O)[C@H](C)NC(=O)[C@H](CCC(N)=O)NC(=O)[C@H](CCC(=O)O)NC(=O)[C@H](CC(C)C)NC(=O)[C@H](CCC(N)=O)NC(=O)[C@H](CCCCN)NC(=O)[C@@H](NC(=O)[C@H](CCC(N)=O)NC(=O)[C@H](CCC(N)=O)NC(=O)[C@@H](NC(C)=O)[C@@H](C)O)C(C)C)[C@@H](C)O)C(=O)N[C@@H](CCCCN)C(=O)N[C@H](C(=O)N[C@H](C(=O)N[C@@H](CC(C)C)C(N)=O)[C@@H](C)CC)[C@@H](C)O [CGEN-G2] (Ac-TQQVKQLEQALQNNTQWLKKLERAIKTIL-NH2) | – | – | –
